{
  "source": "patent US6448205B1",
  "about": "“Substituted 2-phenylpyridine as herbicide” (BASF Aktiengesellschaft, priority 1996, dated 2002)",
  "data": [
    {"compound": "COc1cc(-c2ncc([S+](C)[O-])cc2Cl)c(F)cc1Cl", "note": "(stereo not shown) [No. 6, 3-Chloro-2-(4-chloro-2-fluoro-5-methoxyphenyl)-5-methylsulfinylpyridine]", "values": [
      {"measurement": "melting point", "result": 118, "unit": "°C"}
    ]}
  ]
}
